Test results: patent US10881110B2, “Herbicidal compositions comprising isoxazolo[5,4-b]pyridines” (BASF SE, priority 2014, dated 2021)

What was measured:
Assay in all cases: greenhouse post-emergence herbicidal test
PAPRH = type: in vivo, Papaver rhoeas; parameters: key: rating on a scale from 0 to 100
Method: (§1) The culture containers used were plastic pots containing medium loamy sand with approximately 4.6% of humus and 69.9% sand as substrate. The seeds of the test plants were sown separately for each species.
(§2) For the post-emergence treatment, the test plants were grown to a plant height of from 1 to 15 cm, depending on the plant habit, and only then treated with the active compounds which had been suspended or emulsified in water. To this end, the test plants were either sown directly, and grown in the same containers, or they were first grown separately as seedlings and transplanted into the test containers a few days prior to treatment.
(§3) Depending on the species, the plants were kept at 10-25° C. and 20-35° C., respectively.
(§4) The test period extended over 1 to 3 weeks. During this time, the plants were tended and their response to the individual treatments was evaluated 20 days after treatment except mentioned otherwise.
(§5) Evaluation was carried out using a scale from 0 to 100. 100 means no emergence of the plants, or complete destruction of at least the above-ground parts, and 0 means no damage or normal course of growth.
(§6) The respective stated components A and B, and, if appropriate, C, were formulated as a 10% by weight strength emulsion concentrate and, with addition of the amount of solvent system, introduced into the spray liquor used for applying the active compound. In the examples, the solvent used was water.
(§7) In the examples below, using the method of S. R. Colby (1967) “Calculating synergistic and antagonistic responses of herbicide combinations”, Weeds 15, p. 22 ff., the value E, which is expected if the activity of the individual active compounds is only additive, was calculated. E=X+Y−(X·Y/100)

POLCO = type: in vivo, Polygonum convolvulus; parameters: key to herbicidal activity against POLCO found: rating on a scale from 0 to 100
Method: as §1, §2, §3, §4, §5, §6, §7

ERICA = type: in vivo, Conyza canadensis; parameters: key to herbicidal activity against ERICA found: rating on a scale from 0 to 100; settings: post emergence
Method: as §1, §2, §3, §4, §5, §6, §7

IPOHE = type: in vivo, Ipomoea hederacea; parameters: key to herbicidal activity against IPOHE found: rating on a scale from 0 to 100
Method: as §1, §2, §3, §4, §5, §6, §7

GERDI = type: in vivo, Geranium dissectum; parameters: key to herbicidal activity against GERDI found: rating on a scale from 0 to 100; settings: for herbicidal activity against GERDI found: I.1 62.5 g/ha
Method: as §1, §2, §3, §4, §5, §6, §7

MATCH = type: in vivo, Matricaria recutita; parameters: key to herbicidal activity against MATCH found: rating on a scale from 0 to 100
Method: as §1, §2, §3, §4, §5, §6, §7

ALOMY = type: in vivo, Alopecurus myosuroides; parameters: key to herbicidal activity against ALOMY found: rating on a scale from 0 to 100; settings: for herbicidal activity against ALOMY found: I.1 62.5 g/ha
Method: as §1, §2, §3, §4, §5, §6, §7

APESV = type: in vivo, Apera spica-venti; parameters: key to herbicidal activity against APESV found: rating on a scale from 0 to 100; settings: post emergence
Method: as §1, §2, §3, §4, §5, §6, §7

VIOAR = type: in vivo, Viola arvensis; parameters: key to herbicidal activity against VIOAR found / herbicidal activity against VIOLA found: rating on a scale from 0 to 100
Method: as §1, §2, §3, §4, §5, §6, §7

ECHCG = type: in vivo, Echinochloa crus-galli; parameters: key to herbicidal activity against ECHCG found / herbicidal activity against ECHCH found: scale 0 to 100
Method: as §1, §2, §3, §4, §5, §6, §7

ABUTH = type: in vivo, Abutilon theophrast; parameters: key to herbicidal activity against ABUTH found: rating on a scale from 0 to 100; settings: for herbicidal activity against ABUTH found: post emergence
Method: as §1, §2, §3, §4, §5, §6, §7

KCHSC = type: in vivo, Kochia scoparia; parameters: key to herbicidal activity against KCHSC found: rating on a scale from 0 to 100; settings: for herbicidal activity against KCHSC found: post emergence, B.88 1 g/ha a.i.
Method: as §1, §2, §3, §4, §5, §6, §7

GALAP = type: in vivo, Galium aparine; settings: Galium aparine, post-emergence, 480 h, read-out: herbicidal activity against GALAP found
Method: as §1, §2, §3, §4, §5, §6, §7

[1] = I.1 62.5 g/ha, B.57 2 g/ha a.i.
[2] = post emergence, a.i. g/ha: I.1 62.5, B.79 25, 20 days after treatment
[3] = post emergence, a.i. g/ha: I.1 20.8, B.79 25, 20 days after treatment
[4] = I.1 31.25 g/ha, B.88 1 g/ha a.i.
[5] = post emergence, B.88 1 g/ha a.i.
[6] = post emergence, B.88 2 g/ha a.i.
[7] = I.1 31.25 g/ha, B.88 2 g/ha a.i.
[8] = I.1 62.5 g/ha, B.88 1 g/ha a.i.
[9] = I.1 62.5 g/ha, B.88 2 g/ha a.i.
[10] = Geranium dissectum, post-emergence, 480 h, read-out: herbicidal activity against GERDI found
[11] = post emergence, applied alone at 15 g/ha a.i.

COc1ncc(F)c2nc(S(=O)(=O)Nc3c(F)cccc3F)nn12 [B.26, florasulam]
herbicidal activity against PAPRH found (PAPRH; 2 g/ha a.i.): 98
herbicidal activity against POLCO found (POLCO; post emergence, 2 g/ha a.i.): 85

COc1cc(OC)n2nc(NS(=O)(=O)c3c(C(F)(F)F)ccnc3OC)nc2n1 [B.57, pyroxsulam]
herbicidal activity against ERICA found (ERICA; [1]): 75
herbicidal activity against IPOHE found (IPOHE; post emergence, I.1 62.5 g/ha, B.57 1 g/ha a.i.): 80
herbicidal activity against PAPRH found (PAPRH; [1]): 0

CCS(=O)(=O)c1cccnc1S(=O)(=O)NC(=O)Nc1nc(OC)cc(OC)n1 [B.59, rimsulfuron]
pest or weed control at 0.5 g/ha (ERICA; Erigeron canadensis, post-emergence, 480 h, 0.5 g/ha a.i., read-out: herbicidal activity against ERICA found): 65%
pest or weed control at 0.5 g/ha (GERDI; Geranium dissectum, post-emergence, 480 h, post emergence, 0.5 g/ha a.i., read-out: herbicidal activity against GERDI found): 75%
pest or weed control at 0.5 g/ha (IPOHE; Ipomoea hederacea, post-emergence, 480 h, post emergence, 0.5 g/ha a.i., read-out: herbicidal activity against IPOHE found): 90%
pest or weed control at 0.5 g/ha (MATCH; Matricaria chamomilla, post-emergence, 480 h, post emergence, 0.5 g/ha a.i., read-out: herbicidal activity against MATCH found): 75%
herbicidal activity against PAPRH found (PAPRH; 0.5 g/ha a.i.): 65

CCS(=O)(=O)c1nc2ccccn2c1S(=O)(=O)NC(=O)Nc1nc(OC)cc(OC)n1 [B.60, sulfosulfuron]
pest or weed control at 3 g/ha (ALOMY; Alopecurus myosuroides, post-emergence, 480 h, post emergence, 3 g/ha a.i., read-out: herbicidal activity against ALOMY found): 60%
pest or weed control at 3 g/ha (APESV; Apera spica-venti, post-emergence, 480 h, 3 g/ha a.i., read-out: herbicidal activity against APESV found): 60%
pest or weed control at 3 g/ha (ERICA; Erigeron canadensis, post-emergence, 480 h, 3 g/ha a.i., read-out: herbicidal activity against ERICA found): 75%
herbicidal activity against PAPRH found (PAPRH; 3 g/ha a.i.): 90
pest or weed control at 3 g/ha (POLCO; Fallopia convolvulus, post-emergence, 480 h, post emergence, 3 g/ha a.i., read-out: herbicidal activity against POLCO found): 90%
pest or weed control at 3 g/ha (VIOAR; Viola arvensis, post-emergence, post emergence, 3 g/ha a.i., read-out: herbicidal activity against VIOAR found): 65%

CSc1nnc(C(C)(C)C)c(=O)n1N [B.79, metribuzin]
herbicidal activity against ECHCG found (ECHCG; [2]): 20%
herbicidal activity against MATCH found (MATCH; [3]): 65%
herbicidal activity against POLCO found (POLCO; [3]): 20%
herbicidal activity against POLCO found (POLCO; [2]): 20%

C#CCN1C(=O)COc2cc(F)c(N3C(=O)C4=C(CCCC4)C3=O)cc21 [B.88, flumioxazin]
herbicidal activity against ABUTH found (ABUTH; [4]): 90
herbicidal activity against ALOMY found (ALOMY; [5]): 0
herbicidal activity against ALOMY found (ALOMY; [6]): 20
herbicidal activity against APESV found (APESV; I.1 15.62 g/ha, B.88 1 g/ha a.i.): 25
herbicidal activity against APESV found (APESV; [4]): 25
herbicidal activity against APESV found (APESV; [7]): 65
herbicidal activity against APESV found (APESV; [8]): 25
herbicidal activity against APESV found (APESV; [9]): 65
herbicidal activity against GERDI found (GERDI; [5]): 70
herbicidal activity against GERDI found (GERDI; [6]): 70
herbicidal activity against KCHSC found (KCHSC; I.1 15.62 g/ha): 85
herbicidal activity against KCHSC found (KCHSC; I.1 31.25 g/ha): 85
herbicidal activity against KCHSC found (KCHSC; I.1 62.5 g/ha): 85
herbicidal activity against PAPRH found (PAPRH; I.1 15.62 g/ha, B.88 2 g/ha a.i.): 75
herbicidal activity against PAPRH found (PAPRH; [4]): 25
herbicidal activity against PAPRH found (PAPRH; [7]): 75
herbicidal activity against PAPRH found (PAPRH; [8]): 25
herbicidal activity against PAPRH found (PAPRH; [9]): 75

CP(=O)(O)CCC(N)C(=O)O (stereo not shown) [B.120, glufosinate-ammonium]
pest or weed control at 125 g/ha (ABUTH; Abutilon theophrasti, post-emergence, 480 h, read-out: herbicidal activity against ABUTH found): 70%
pest or weed control at 125 g/ha (GALAP): 80%
pest or weed control at 62.5 g/ha (GERDI; [10]): 40%
pest or weed control at 125 g/ha (GERDI; [10]): 90%
pest or weed control at 62.5 g/ha (IPOHE; Ipomoea hederacea, post-emergence, 480 h, read-out: herbicidal activity against IPOHE found): 80%
pest or weed control at 62.5 g/ha (KCHSC; Bassia scoparia, post-emergence, 480 h, read-out: herbicidal activity against KCHSC found): 45%
pest or weed control at 62.5 g/ha (MATCH; Matricaria chamomilla, post-emergence, 480 h, read-out: herbicidal activity against MATCH found): 55%
herbicidal activity against PAPRH found (PAPRH; 62.5 g/ha a.i.): 30
pest or weed control at 125 g/ha (POLCO; Fallopia convolvulus, post-emergence, 480 h, read-out: herbicidal activity against POLCO found): 65%
pest or weed control at 125 g/ha (VIOAR; Viola arvensis, post-emergence, read-out: herbicidal activity against VIOAR found): 15%

COC(=O)c1c(Cl)nn(C)c1S(=O)(=O)NC(=O)Nc1nc(OC)cc(OC)n1 [halosulfuron-methyl]
pest or weed control at 5 g/ha (ALOMY; Alopecurus myosuroides, post-emergence, 480 h, read-out: herbicidal activity against ALOMY found): 10%
pest or weed control at 5 g/ha (ECHCG; Echinochloa crus-galli, post-emergence, 480 h, read-out: herbicidal activity against ECHCG found): 45%

CCOC(=O)[C@@H](C)Oc1ccc(Oc2cnc3cc(Cl)ccc3n2)cc1 [quizalofop-p-ethyl]
herbicidal activity against ABUTH found (ABUTH; applied alone at 7.5 g/ha a.i.): 15
herbicidal activity against ABUTH found (ABUTH; applied alone at 15 g/ha a.i.): 25
herbicidal activity against ERICA found (ERICA; applied alone at 7.5 g/ha a.i.): 0
herbicidal activity against ERICA found (ERICA; applied alone at 15 g/ha a.i.): 20
herbicidal activity against MATCH found (MATCH; [11]): 0
herbicidal activity against PAPRH found (PAPRH; applied alone at 15 g/ha a.i.): 50
herbicidal activity against VIOAR found (VIOAR; post emergence, applied alone at 7.5 g/ha a.i.): 0
herbicidal activity against VIOAR found (VIOAR; [11]): 0
